{"source": "patent US9789059B2", "about": "“Oral disintegrating tablet” (Boehringer Ingelheim International GmbH, priority 2014, dated 2017)", "origin": "cited, not measured here", "settings": "physiological pH range of the gastro-intestinal tract between pH 1 to 7; free acid form", "data": [{"compound": "CCCc1nc2c(C)cc(-c3nc4ccccc4n3C)cc2n1Cc1ccc(-c2ccccc2C(=O)O)cc1", "note": "[Telmisartan, 4′-[2-n-propyl-4-methyl-6-(1-methylbenzimidazol-2-yl)-benzimidazol-1-ylmethyl]-biphenyl-2-carboxylic acid]", "values": [{"measurement": "solubility in aqueous systems", "result": "very poor solubility"}]}]}
